Consider 30 compounds from patent US11370776B2, “Sulfonylureas and sulfonylthioureas as NLRP3 inhibitors” (Inflazome Limited, priority 2017, dated 2022).

This assay deals with NLRP3 (Homo sapiens, UniProt Q96P20). Description: THP-1 cells pyroptosis assay. The format is cell-based. On the set-up: Seed THP-1 cells (25,000 cells/well) containing 1.0 μg/ml LPS; host or cells: THP-1 cells, LPS-primed, nigericin-stimulated. The method, then: The cells were routinely passaged and grown to confluency (˜10^6 cells/ml). On the day of the experiment, THP-1 cells were harvested and resuspended into RPMI medium (without FBS). The cells were then counted and viability (>90%) checked by Trypan blue (Sigma # T8154). […] To this diluted cell solution was added LPS (Sigma # L4524) to give a 1 μg/ml Final Assay Concentration (FAC). 40 μl of the final preparation was aliquoted into each well of a 96-well plate. The plate thus prepared was used for compound screening. THP-1 Cells Pyroptosis Assay The following method step-by-step assay was followed for compound screening. • 1. […] Add 5 μl nigericin (Sigma # N7143) (FAC 5 μM) to all wells • 5. […] At the end of the incubation period, spin plates at 300×g for 3 mins and remove supernatant • 7. Then add 50 μl of resazurin (Sigma # R7017) (FAC 100 μM resazurin in RPMI medium without FBS) and incubate plates for a further 1-2 hrs at 37° C. and 5% CO2 • 8. […] IC50 data is fitted to a non-linear regression equation (log inhibitor vs response-variable slope 4-parameters) [table]

Where [1] appears, read: THP-1 cells, 1.0 μg/ml LPS, nigericin 5 μM, pyroptosis read with resazurin, read-out: THP IC50.

Where a name gives a salt, the structure may show the parent alone. Read-outs that look alike come from different tables or passages of the source. Some results are limits rather than exact numbers.

Sequence of NLRP3 (Q96P20 whole entry): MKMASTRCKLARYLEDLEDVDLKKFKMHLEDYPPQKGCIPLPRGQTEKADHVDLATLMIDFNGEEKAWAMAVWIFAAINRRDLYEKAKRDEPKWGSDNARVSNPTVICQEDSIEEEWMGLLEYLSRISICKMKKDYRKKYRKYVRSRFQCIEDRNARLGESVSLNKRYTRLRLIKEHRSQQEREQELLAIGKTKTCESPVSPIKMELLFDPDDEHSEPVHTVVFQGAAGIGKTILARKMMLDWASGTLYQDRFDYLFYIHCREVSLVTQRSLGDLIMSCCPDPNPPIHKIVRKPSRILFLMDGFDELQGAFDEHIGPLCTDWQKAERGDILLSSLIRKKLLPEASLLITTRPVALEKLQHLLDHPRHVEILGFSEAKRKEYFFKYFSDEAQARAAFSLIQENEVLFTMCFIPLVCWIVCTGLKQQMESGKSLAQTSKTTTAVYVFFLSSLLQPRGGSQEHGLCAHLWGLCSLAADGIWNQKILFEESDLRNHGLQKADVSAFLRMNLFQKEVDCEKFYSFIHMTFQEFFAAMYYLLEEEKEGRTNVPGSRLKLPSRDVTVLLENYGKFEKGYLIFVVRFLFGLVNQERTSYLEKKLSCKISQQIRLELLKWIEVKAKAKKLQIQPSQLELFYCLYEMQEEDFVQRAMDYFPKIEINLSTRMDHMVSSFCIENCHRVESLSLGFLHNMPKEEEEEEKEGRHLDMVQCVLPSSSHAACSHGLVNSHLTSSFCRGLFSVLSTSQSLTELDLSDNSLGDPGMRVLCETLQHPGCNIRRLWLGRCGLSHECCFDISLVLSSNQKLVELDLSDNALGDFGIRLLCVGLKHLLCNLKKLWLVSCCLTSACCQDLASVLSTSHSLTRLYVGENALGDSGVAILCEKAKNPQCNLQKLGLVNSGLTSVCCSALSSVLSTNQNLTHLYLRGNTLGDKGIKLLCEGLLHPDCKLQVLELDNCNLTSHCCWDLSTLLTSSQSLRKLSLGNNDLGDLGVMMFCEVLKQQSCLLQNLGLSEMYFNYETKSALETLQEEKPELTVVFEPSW

On to `N#Cc1nccnc1S(=O)(=O)NC(=O)Nc1c2c(cc3c1CCC3)CCC2` [Example 24, 3-Cyano-N-((1,2,3,5,6,7-hexahydro-s-indacen-4-yl)carbamoyl)pyrazine-2-sulfonamide, Potassium Salt], for which the concentration for half-maximal inhibition (IC50) under setting [1] is less than 10000 nM.
On the same count and under the same terms, with `O=C(Nc1c2c(cc3c1CCC3)CCC2)NS(=O)(=O)c1cccnn1` [Example 2, N-((1,2,3,5,6,7-Hexahydro-s-indacen-4-yl)carbamoyl)pyridazine-3-sulfonamide, Potassium Salt] the figure was less than 2000 nM.
On to `Cc1cc(N(C)C)nc(S(=O)(=O)NC(=O)Nc2c3c(cc4c2CCC4)CCC3)n1` [Example 56, 4-(Dimethylamino)-N-((1,2,3,5,6,7-hexahydro-s-indacen-4-yl)carbamoyl)-6-methylpyrimidine-2-sulfonamide, potassium salt], for which the half-inhibitory concentration (IC50) under setting [1] was less than 800 nM. Also, the “NLRP3 inhibitory activity (in words)” value (THP-1 pyroptosis assay) is “highly active”.
Turning to `O=C(Nc1c2c(cc3c1CCC3)CCC2)NS(=O)(=O)c1ccc(=O)[nH]c1` [Example 23, N-((1,2,3,5,6,7-hexahydro-s-indacen-4-yl)carbamoyl)-6-oxo-1,6-dihydropyridine-3-sulfonamide, Potassium Salt], the IC50 under setting [1] is less than 10000 nM.
On the same count and under the same terms, in the case of `Cc1nn(C)c2ncc(S(=O)(=O)NC(=O)Nc3c4c(cc5c3CCC5)CCC4)cc12` [Example 31, N-((1,2,3,5,6,7-Hexahydro-s-indacen-4-yl)carbamoyl)-1,3-dimethyl-1H-pyrazolo[3,4-b]pyridine-5-sulfonamide, Potassium Salt] it was less than 10000 nM.
`Cc1ccc(S(=O)(=O)NC(=O)Nc2c(C(C)C)cccc2C(C)C)nn1` [Example 5, N-((2,6-Diisopropylphenyl)carbamoyl)-6-methylpyridazine-3-sulfonamide, Potassium Salt]: the IC50 under setting [1] is less than 10000 nM.
On the same count and under the same terms, in the case of `CN(C)c1cnc(S(=O)(=O)NC(=O)Nc2c(-c3ccncc3)cc(F)c3c2CCC3)cn1` [Example 41, 5-(Dimethylamino)-N-((7-fluoro-5-(pyridin-4-yl)-2,3-dihydro-1H-inden-4-yl)carbamoyl)pyrazine-2-sulfonamide] it was less than 800 nM.
Still for that read-out and setting: with `Cc1ccc(S(=O)(=O)NC(=O)Nc2c3c(cc4c2CCC4)CCC3)nn1` [Example 4, N-((1,2,3,5,6,7-Hexahydro-s-indacen-4-yl)carbamoyl)-6-methylpyridazine-3-sulfonamide, Sodium Salt] the figure was less than 10000 nM.
Still for that read-out and setting: with `COc1cc(S(=O)(=O)NC(=O)Nc2c3c(cc4c2CCC4)CCC3)c(OC)nn1` [Example 12, N-((1,2,3,5,6,7-Hexahydro-s-indacen-4-yl)carbamoyl)-3,6-di methoxypyridazine-4-sulfonamide, potassium salt] the figure was less than 1200 nM; with `CN(C)c1cnnc(S(=O)(=O)NC(=O)Nc2c3c(cc4c2CCC4)CCC3)c1` [Example 21, 5-(Dimethylamino)-N-((1,2,3,5,6,7-hexahydro-s-indacen-4-yl)carbamoyl)pyridazine-3-sulfonamide, Potassium Salt], less than 800 nM; with `CN(C)c1cnc(S(=O)(=O)NC(=O)Nc2c3c(cc4c2CCC4)CCC3)cn1` [Example 26, 5-(Dimethylamino)-N-((1,2,3,5,6,7-hexahydro-s-indacen-4-yl)carbamoyl)pyrazine-2-sulfonamide, Potassium Salt], less than 800 nM.
With `COc1cc(-c2cc(F)cc(C(C)C)c2NC(=O)NS(=O)(=O)c2cncc(N(C)C)n2)ccn1` [Example 35, 6-(Dimethylamino)-N-((4-fluoro-2-isopropyl-6-(2-methoxypyridin-4-yl)phenyl)carbamoyl)pyrazine-2-sulfonamide], the IC50 under setting [1] was less than 800 nM.
Same read-out and setting: in the case of `CN(C)CCNc1cnc(S(=O)(=O)NC(=O)Nc2c3c(cc4c2CCC4)CCC3)cn1` [Example 25, 5-((2-(Dimethylamino)ethyl)amino)-N-((1,2,3,5,6,7-hexahydro-s-indacen-4-yl)carbamoyl)pyrazine-2-sulfonamide, potassium Salt] it was less than 800 nM; in that of `CC(C)c1cccc(C(C)C)c1NC(=O)NS(=O)(=O)c1cnccn1` [Example 6, N-((2,6-Diisopropylphenyl)carbamoyl)pyrazine-2-sulfonamide, Sodium Salt], less than 10000 nM; in that of `NC(=O)c1ccc(S(=O)(=O)NC(=O)Nc2c3c(cc4c2CCC4)CCC3)nn1` [Example 20, 6-(N-((1,2,3,5,6,7-Hexahydro-s-indacen-4-yl)carbamoyl)sulfamoyl) pyridazine-3-carboxamide, potassium salt], less than 10000 nM.
`COc1cc(-c2cc(F)cc(C(C)C)c2NC(=O)NS(=O)(=O)c2nc(C)cc(C)n2)ccn1` [Example 47, N-((4-Fluoro-2-isopropyl-6-(2-methoxypyridin-4-yl)phenyl)carbamoyl)-4,6-dimethylpyrimidine-2-sulfonamide]: the IC50 under setting [1] was less than 800 nM. In addition, for the setting “THP-1 pyroptosis assay”, the “NLRP3 inhibitory activity (in words)” value is on record as “highly active”.
In the case of `O=C(Nc1c2c(cc3c1CCC3)CCC2)NS(=O)(=O)c1cnc2ccccc2n1` [Example 30, N-((1,2,3,5,6,7-Hexahydro-s-indacen-4-yl)carbamoyl)quinoxaline-2-sulfonamide, Potassium Salt], the IC50 under setting [1] was less than 10000 nM.
For `O=C(Nc1c2c(cc3c1CCC3)CCC2)NS(=O)(=O)c1ncccn1` [Example 3, N-((1,2,3,5,6,7-Hexahydro-s-indacen-4-yl)carbamoyl) pyrimidine-2-sulfonamide, Potassium Salt], the IC50 is less than 1600 nM under setting [1] and greater than 1200 nM (THP-1 pyroptosis assay, bound stated, read-out: IC50 value).
Take `O=C(Nc1c2c(cc3c1CCC3)CCC2)NS(=O)(=O)c1ccc(Cl)nn1` [Example 11, 6-Chloro-N-((1,2,3,5,6,7-hexahydro-s-indacen-4-yl)carbamoyl) pyridazine-3-sulfonamide, Potassium Salt]: the half-inhibitory concentration (IC50) under setting [1] is less than 10000 nM.
Same read-out and setting: in the case of `COc1ncccc1S(=O)(=O)NC(=O)Nc1c2c(cc3c1CCC3)CCC2` [Example 15, N-((1,2,3,5,6,7-Hexahydro-s-indacen-4-yl)carbamoyl)-2-methoxypyridine-3-sulfonamide, Potassium Salt] it was less than 1200 nM; in that of `COc1cc(-c2cc(F)cc(C(C)C)c2NC(=O)NS(=O)(=O)c2nccnc2C(F)F)ccn1` [Example 43, 3-(Difluoromethyl)-N-((4-fluoro-2-isopropyl-6-(2-methoxypyridin-4-yl)phenyl)carbamoyl)pyrazine-2-sulfonamide], less than 10000 nM; in that of `O=C(Nc1c2c(cc3c1CCC3)CCC2)NS(=O)(=O)c1cc(C(F)(F)F)cnn1` [Example 16, N-((1,2,3,5,6,7-Hexahydro-s-indacen-4-yl)carbamoyl)-5-(trifluoromethyl)pyridazine-3-sulfonamide, Potassium Salt], less than 10000 nM.
For the compound `CC(C)c1cc(F)cc(-c2ccnc(C#N)c2)c1NC(=O)NS(=O)(=O)c1cncc(N(C)C)n1` [Example 34, N-((2-(2-Cyanopyridin-4-yl)-4-fluoro-6-isopropylphenyl)carbamoyl)-6-(dimethylamino)pyrazine-2-sulfonamide], the IC50 under setting [1] is less than 800 nM.
Same read-out and setting: with `COc1cc(-c2cc(F)cc(C(C)C)c2NC(=O)NS(=O)(=O)c2cnc(N(C)C)cn2)ccn1` [Example 39, 5-(Dimethylamino)-N-((4-fluoro-2-isopropyl-6-(2-methoxypyridin-4-yl)phenyl)carbamoyl)pyrazine-2-sulfonamide] the figure was less than 800 nM.
As to `O=C(Nc1c(-c2ccncc2)cc(F)c2c1CCC2)NS(=O)(=O)c1nccnc1C(F)F` [Example 45, 3-(Difluoromethyl)-N-((7-fluoro-5-(pyridin-4-yl)-2,3-dihydro-1H-inden-4-yl)carbamoyl)pyrazine-2-sulfonamide], the IC50 under setting [1] is less than 10000 nM.
`Cc1nccnc1S(=O)(=O)NC(=O)Nc1c2c(cc3c1CCC3)CCC2` [Example 29, N-((1,2,3,5,6,7-Hexahydro-s-indacen-4-yl)carbamoyl)-3-methylpyrazine-2-sulfonamide, Potassium Salt]: the IC50 under setting [1] was less than 10000 nM.
Same read-out and setting: in the case of `O=C(Nc1c2c(cc3c1CCC3)CCC2)NS(=O)(=O)c1cncc(N2CCOCC2)n1` [Example 28, N-((1,2,3,5,6,7-Hexahydro-s-indacen-4-yl)carbamoyl)-6-morpholinopyrazine-2-sulfonamide, Potassium Salt] it was less than 800 nM; in that of `COc1ccc(S(=O)(=O)NC(=O)Nc2c3c(cc4c2CCC4)CCC3)nn1` [Example 22, N-((1,2,3,5,6,7-Hexahydro-s-indacen-4-yl)carbamoyl)-6-methoxy pyridazine-3-sulfonamide, Potassium Salt], less than 1600 nM; in that of `CN1CCN(c2cncc(S(=O)(=O)NC(=O)Nc3c4c(cc5c3CCC5)CCC4)n2)CC1` [Example 54, N-((1,2,3,5,6,7-Hexahydro-s-indacen-4-yl)carbamoyl)-6-(4-methylpiperazin-1-yl)pyrazine-2-sulfonamide, Potassium Salt], less than 2000 nM.
On the same count and under the same terms, in the case of `CCOc1ccncc1S(=O)(=O)NC(=O)Nc1c2c(cc3c1CCC3)CCC2` [Example 32, 4-Ethoxy-N-((1,2,3,5,6,7-hexahydro-s-indacen-4-yl)carbamoyl)pyridine-3-sulfonamide, Potassium Salt] it was less than 10000 nM.

The IC50 is the concentration needed to halve the response being measured.
